Experiment: Solubility determination of saturated solutions (shaking 24 h at 25 °C, filtration, HPLC/UPLC-UV quantification)
Assay type: physicochemical
Details: for log(x1)exp: 1,4-dioxane + Water, code 1 (this work)
Method: In the case of binary mixtures, the organic solvent was mixed with water in appropriate molar fractions. Water was also used as a single-component solvent. For each system, three replicate samples were prepared.
The prepared samples were placed in an Orbital Shaker ES-20/60 incubator from Biosan (Riga, Latvia) and shaken for 24 h at 25 °C. The temperature was maintained with an accuracy of ±0.1 °C. During the equilibration process, the samples were agitated at a rate of 60 rpm while being thermostated.
Following equilibration, the samples were filtered through PTFE syringe filters with a 0.22 µm pore size. To prevent precipitation during this step, all test tubes, syringes, and filters were preheated to the corresponding temperature of the solution. Subsequently, an aliquot of the filtrate was transferred to a vial for chromatographic analysis.
Prior to injection, samples were diluted with methanol and injected into a Luna C18 column (250 × 10 mm) equipped with a guard column, both from Phenomenex (Torrance, CA, USA). The injection volume was 100 µL, and the column temperature was maintained at 30 °C. The mobile phase consisted of 0.5% acetic acid (A) and acetonitrile (B), applied with a linear gradient at a flow rate of 5 mL/min: initially 2% B; 1–7 min, 2–50% B; 7–9 min, 50% B; 9–9.5 min, 50–2% B; and 9–18 min, 2% B. The UV absorbance was monitored in the range of 210–400 nm. The chromatographic system was operated with MassLynx 4.1 software (Waters, […], USA). Quantitative analysis was performed using the TargetLynx application at 293 nm. All samples were analyzed in triplicate (technical replicates).
The system included the Acquity Binary Solvent Manager, Acquity Sample Manager, and Acquity Column Manager (Waters, Milford, CT, USA). Prior to analysis, samples were diluted with methanol, and 0.3 µL was injected. Separation was performed on a ACQUITY UPLC CSH C18 column (1.7 µm, 2.1 × 30 mm, Waters, Milford, CT, USA) maintained at 40 °C. UV detection was carried out at 293 nm using a tunable dual-wavelength UV/Vis detector (TUV, Waters, Milford, CT, USA). […] Each sample was analyzed in three technical replicates.
To calculate mole fractions of the solutes, the density of each saturated solution was determined by weighing 1 mL of the sample using an analytical balance (RADWAG AS 110.R2 PLUS; Radwag, Radom, Poland).

For `O=C(O)/C=C/c1ccc(O)c(O)c1` [caffeic acid, Caffeic acid], the “log(x1)exp” value (x2* 0.00, x3* 1.00, T 25.0 °C) was -4.023, the “log(x1)exp” value (x2* 0.10, x3* 0.90, T 25.0 °C) was -2.614 and the “log(x1)exp” value (x2* 0.20, x3* 0.80, T 25.0 °C) was -1.897. For the same compound, the “log(x1)exp” value (x2* 0.30, x3* 0.70, T 25.0 °C) was -1.603, the “log(x1)exp” value (x2* 0.40, x3* 0.60, T 25.0 °C) was -1.455 and the “x1 × 102 (mole fraction of solute)” value (1,4-dioxane-water, x2* = 0.0, 25 °C) was 0.009 mole fraction × 102. For the same compound, the “x1 × 102 (mole fraction of solute)” value (1,4-dioxane-water, x2* = 0.1, 25 °C) was 0.243 mole fraction × 102, the “x1 × 102 (mole fraction of solute)” value (1,4-dioxane-water, x2* = 0.2, 25 °C) was 1.269 mole fraction × 102 and the “x1 × 102 (mole fraction of solute)” value (1,4-dioxane-water, x2* = 0.3, 25 °C) was 2.495 mole fraction × 102. For the same compound, the “x1 × 102 (mole fraction of solute)” value (1,4-dioxane-water, x2* = 0.4, 25 °C) was 3.504 mole fraction × 102, the “x1 × 102 (mole fraction of solute)” value (1,4-dioxane-water, x2* = 0.5, 25 °C) was 4.260 mole fraction × 102 and the “x1 × 102 (mole fraction of solute)” value (1,4-dioxane-water, x2* = 0.6, 25 °C) was 4.647 mole fraction × 102. For the same compound, the “x1 × 102 (mole fraction of solute)” value (1,4-dioxane-water, x2* = 0.7, 25 °C) was 4.698 mole fraction × 102, the “x1 × 102 (mole fraction of solute)” value (1,4-dioxane-water, x2* = 0.8, 25 °C) was 4.232 mole fraction × 102 and the “x1 × 102 (mole fraction of solute)” value (1,4-dioxane-water, x2* = 0.9, 25 °C) was 2.850 mole fraction × 102. The “x1 × 102 (mole fraction of solute)” value (1,4-dioxane-water, x2* = 1.0, 25 °C) was 1.634 mole fraction × 102, the “mole fraction solubility (x1)” value (1,4-dioxane–water, x2* = 0.0 (pure water), 25 °C) was 9.0 × 10^−5 mole fraction and the “mole fraction solubility (x1)” value (1,4-dioxane–water, x2* = 0.7, 25 °C) was 4.698 × 10^−2 mole fraction. For the same compound, the “x1 × 102 (mole fraction of solute)” value (4-FM-water, x2* = 0.1, 25 °C) was 0.785 mole fraction × 102, the “x1 × 102 (mole fraction of solute)” value (4-FM-water, x2* = 0.2, 25 °C) was 2.306 mole fraction × 102 and the “x1 × 102 (mole fraction of solute)” value (4-FM-water, x2* = 0.3, 25 °C) was 4.043 mole fraction × 102. For the same compound, the “x1 × 102 (mole fraction of solute)” value (4-FM-water, x2* = 0.4, 25 °C) was 6.072 mole fraction × 102, the “x1 × 102 (mole fraction of solute)” value (4-FM-water, x2* = 0.5, 25 °C) was 7.935 mole fraction × 102 and the “x1 × 102 (mole fraction of solute)” value (4-FM-water, x2* = 0.6, 25 °C) was 10.036 mole fraction × 102. The “x1 × 102 (mole fraction of solute)” value (4-FM-water, x2* = 0.7, 25 °C) was 11.977 mole fraction × 102, the “x1 × 102 (mole fraction of solute)” value (4-FM-water, x2* = 0.8, 25 °C) was 13.855 mole fraction × 102 and the “x1 × 102 (mole fraction of solute)” value (4-FM-water, x2* = 0.9, 25 °C) was 15.930 mole fraction × 102. The “x1 × 102 (mole fraction of solute)” value (4-FM-water, x2* = 1.0, 25 °C) was 17.932 mole fraction × 102, the “x1 × 102 (mole fraction of solute)” value (DMSO-water, x2* = 0.1, 25 °C) was 0.209 mole fraction × 102 and the “x1 × 102 (mole fraction of solute)” value (DMSO-water, x2* = 0.2, 25 °C) was 1.527 mole fraction × 102. The “x1 × 102 (mole fraction of solute)” value (DMSO-water, x2* = 0.3, 25 °C) was 4.718 mole fraction × 102, the “x1 × 102 (mole fraction of solute)” value (DMSO-water, x2* = 0.4, 25 °C) was 11.316 mole fraction × 102 and the “x1 × 102 (mole fraction of solute)” value (DMSO-water, x2* = 0.5, 25 °C) was 20.824 mole fraction × 102. For the same compound, the “x1 × 102 (mole fraction of solute)” value (DMSO-water, x2* = 0.6, 25 °C) was 28.915 mole fraction × 102, the “x1 × 102 (mole fraction of solute)” value (DMSO-water, x2* = 0.7, 25 °C) was 33.598 mole fraction × 102 and the “x1 × 102 (mole fraction of solute)” value (DMSO-water, x2* = 0.8, 25 °C) was 34.931 mole fraction × 102. The “x1 × 102 (mole fraction of solute)” value (DMSO-water, x2* = 0.9, 25 °C) was 31.904 mole fraction × 102, the “x1 × 102 (mole fraction of solute)” value (DMSO-water, x2* = 1.0, 25 °C) was 22.675 mole fraction × 102 and the “mole fraction solubility (x1)” value (DMSO–water, x2* = 0.8, 25 °C) was 34.931 × 10^−2 mole fraction. The “mole fraction solubility (x1)” value (pure 1,4-dioxane (x2* = 1.0), 25 °C) was 1.634 × 10^−2 mole fraction, the “mole fraction solubility (x1)” value (pure 4-FM (4-formylmorpholine, x2* = 1.0), 25 °C) was 17.932 × 10^−2 mole fraction and the “mole fraction solubility (x1)” value (pure DMSO, 25 °C) was 22.675 × 10^−2 mole fraction.

Reference: article PMC12655719, “Evaluating the Effectiveness of Reference Solvent Solubility Calculations for Binary Mixtures Based on Pure Solvent Solubility: The Case of Phenolic Acids” (Molecules, 2025)
